Consider three molecules from patent US12391672B2, “Solid forms comprising (S)-4-(4-(4-(((2-(2,6-dioxopiperidin-3-yl)-1-oxoisoindolin-4-yl)oxy)methyl)benzyl)piperazin-1-yl)-3-fluorobenzonitrile and salts thereof, and compositions comprising and methods of using the same” (Celgene Corporation, priority 2019, dated 2025).

The test system of data set [1] is non-selective α1 adrenergic receptor. Briefly: α1 adrenergic receptor binding at 10 μM ([3H]prazosin). The note with it: 0.25 nM [3H]prazosin, rat cerebral cortex membranes. The procedure:
(§1) α1 Adrenergic and Dopamine D2 Receptors. Methods: Binding and functional assays for α1 adrenergic and dopamine D2 receptors were performed by Eurofins Cerep according to their methods.
α1 Adrenergic Receptor. Binding at 10 μM. The binding assay evaluated the affinity of test article for the non-selective α1 adrenergic receptor in rat cerebral cortex. Membrane homogenates of cerebral cortex were incubated in duplicate for 60 minutes at room temperature with 0.25 nM [^3H]prazosin in the absence or presence of test articles at 10 μM. After the incubation period, samples were filtered through glass fiber filters, the filters dried and then counted for radioactivity using a scintillation counter. Results are expressed as mean percent inhibition of control radioligand binding.

For data set [2], the target named is T1, dopamine D2S receptor (Homo sapiens, UniProt P14416).
T1 construct: host or cells: HEK-293
Briefly: Dopamine D2S receptor binding at 10 μM. The note with it: transfected HEK-293 cell membranes, read-out: Dopamine D2S % Inh. (@10 μM). Here is the method:
as §1
Dopamine D2 Receptor. Binding at 10 μM. The binding assay evaluated the affinity of test articles for the dopamine D2 receptor in transfected human embryonic kidney (HEK)-293 cells. For determining the binding in the D2S receptor assay, test article was incubated with 0.3 nM [^3H] methylspiperone or 1 nM [^3H] 7-hydroxy-2-N,N-dipropylaminotetralin (7-OH-DPAT). [^3H] Methylspiperone at 0.3 nM also was used as control ligand in the D2L binding assay. Cell membrane homogenates were incubated in duplicate at room temperature for 60 minutes with ligand in the absence or presence of test articles at 10 μM. After the incubation period, samples were filtered through glass fiber filters, the filters dried and then counted for radioactivity using a scintillation counter. Results are expressed as mean percent inhibition of control radioligand binding.

The nature of data set [3]: Thermal treatment / racemization on heating. Format: physicochemical. Here is the method:
Thermal treatment of solid forms: the following table summarizes two experiments carried out using solvent-free thermal treatment of forms of Compound 1. The goal of these experiments was to determine whether the endotherm at 225° C. observed in many DSC experiments corresponded to the melting of the racemate of Compound 1 or whether it was a polymorphic form of Compound 1. Two experiments involved generation of different solid forms of Compound 1, the amorphous form and Form E. The resulting products were subsequently heated to temperatures where exothermic events had been observed in DSC thermograms. Both experiments confirmed that the racemate was generated by heating.
Racemization of Compound 1 during the DSC analysis was confirmed by heating the samples to various temperatures and analyzing these samples by a chiral HPLC method as well as by comparison of the melting point with a pure sample of the racemate of Compound 1. Upon heating the sample to 160° C., the chiral purity was essentially unchanged (96.1 area % at 160° C. vs. 97.1% initial). This supports the interpretation of the sharp endotherm seen in the DSC thermogram at about 152.6° C. as the melt of the enantiomer. Between 160-218° C. a gradual conversion of the enantiomer to the racemate occurs along with the recrystallization of the racemate. This explains the unsteady baseline over this temperature range and the small broad endotherm observed at about 197.1° C. […] This melting point matches the peak melting point (about 225.6° C.) of the pure racemate of Compound 1.

Data set [4] is described as follows: Competitive slurry and slurry stability experiments. Format: physicochemical. The note with it: aqueous slurry at room temperature, within 24 hr. The procedure:
Form B was obtained at room temperature while form C was obtained at 45° C. in acetone alone.
The HBr salt was largely insoluble in various buffers when 1 mg/mL slurries were prepared and the mother liquor concentration determined (by HPLC): <0.05 mg/mL in all buffers tested.

Data set [5] is described as follows: Dynamic vapor sorption / hygroscopicity. Format: physicochemical. To be noted: listed as Form B. The procedure:
Projekt Messtechnik (now ProUmid) SPS11-100n. The sample was placed on an aluminum holder on top of a microbalance and allowed to equilibrate at 50% r.h. before starting one of the following pre-defined humidity programs (1 cycle): • hold 2 h at 50% r.h., • decrease humidity −5% r.h. h^−1 for 10 h (i.e., from 50% r.h. to 0% r.h.), • hold 5 h at […]., • increase humidity +5% r.h. h^−1 for 19 h (i.e., from 0% r.h. to 95% r.h.), • hold 5 h at 95% r.h., • decrease humidity −5% r.h. h^−1 for 9 h (i.e., from 95% r.h. to 50% r.h.), • hold 2 h at 50% r.h. or • hold 2 h at 50% r.h., • increase humidity +5% r.h. h^−1 for 9 h (i.e., from 50% r.h. to 95% r.h.), • hold 5 h at 95% r.h., • decrease humidity −5% r.h. h^−1 for 19 h (i.e., from 95% r.h. to 0% r.h.), • hold 5 h at 0% r.h., • increase humidity +5% r.h. h^−1 for 10 h (i.e., from 0% r.h. to 50% r.h.), • hold 2 h at 50% r.h.
The hygroscopicity was classified based on the mass gain at 85% r.h. relative to the initial mass as follows: deliquescent (sufficient water adsorbed to form a liquid), very hygroscopic (mass increase of […]), hygroscopic (mass increase of <15% but ≥2%), slightly hygroscopic (mass increase of <2% but ≥0.2%), or non-hygroscopic (mass increase of <0.2%).

The nature of data set [6]: Mechanical stressing (grinding, compression). Format: physicochemical. To be noted: ground with a mortar and pestle for 2 min; listed as Form B. Here is the method:
Mechanical stressing experiment: the following table describes three experiments involving mechanical stressing of Form A and/or Form B of free base Compound 1 by grinding with a mortar and pestle.
Shear Sensitivity: Form K was compressed under 2000 psi for 1 minute and analyzed by XRPD.

Data set [7] in a line: Solid state stability under accelerated storage conditions. Format: physicochemical. The note with it: for Chiral purity after storage: initial value 97.96 area %; for area % chemical purity after storage: initially 98.4%. Here is the method: Form A was not isolated directly as a wet cake but formed only upon drying of Form E in polymorphism studies. […] Small quantities of Form A were generated by dissolving a crude Compound 1 in MEK at high temperature, followed by fast cooling to room temperature, filtration and drying. DSC and TGA data were obtained for samples of Form A and following storage for 1 week at 60° C. and 60° C./75% RH. […] TGA analysis confirmed that this broad endotherm was most likely due to moisture uptake under the accelerated storage conditions. Most of the weight loss of 0.82% in this sample occurred in a single step at less than 75° C. By contrast, weigh loss was a two-step process at the initial time point. […] The residual solvent initially present in the sample was lost upon storage of the sample at 60° C. (0.13% weight loss between 25 to 150° C.).
Form B could be obtained from a process involving methyl acetate. […] HPLC traces were taken of the samples of Form B and following storage for 2 week at 60° C. and 60° C./75% RH. […] Several small degradation products were seen to grow especially in the sample stored at 60° C. Chiral instability was also observed in the sample stored at 60° C./75% RH.
Physical stability: Visually, all samples of Form K were white colored powder with no apparent change in color in the samples stored under accelerated conditions (40° C., 40° C./75% RH, 60° C., 60° C./75% RH and sample stored in light chamber in clear vials exposed to light and covered in aluminum foil) for 14 d relative to the sample stored refrigerated and under ambient conditions.
Solid state chemical stability: HPLC analysis were performed on Form K samples stored under the accelerated stability conditions. […] Based on the HPLC analysis data, there is a measurable but small change in the chemical stability of Form K under the accelerated conditions of temperature, humidity and exposure to light over the 14 d period.
Solid state chiral stability: Chiral stability of Form K samples stored under accelerated stability conditions was tested. There was ˜2.9% of the R-enantiomer (97.1 area % of the active S-isomer) in the initial sample. […]
The chiral purity (area % of S-isomer) remained […] under the accelerated stability conditions.

Data set [8] in a line: Solubility of polymorphic forms in physiologically relevant media and final pH. Format: physicochemical. The note with it: listed as Form B. From the text:
Solubility data of the several polymorphic forms of Compound 1 in physiologically relevant media and the final pH of these solutions are summarized in the following tables.

≈ marks a conversion by molar mass, not a printed value. Where “and” joins values, the source holds several entries; their conditions need not be identical. Equal entries are not always repeated.

T1 sequence (P14416 1-414 isoform P14416-2): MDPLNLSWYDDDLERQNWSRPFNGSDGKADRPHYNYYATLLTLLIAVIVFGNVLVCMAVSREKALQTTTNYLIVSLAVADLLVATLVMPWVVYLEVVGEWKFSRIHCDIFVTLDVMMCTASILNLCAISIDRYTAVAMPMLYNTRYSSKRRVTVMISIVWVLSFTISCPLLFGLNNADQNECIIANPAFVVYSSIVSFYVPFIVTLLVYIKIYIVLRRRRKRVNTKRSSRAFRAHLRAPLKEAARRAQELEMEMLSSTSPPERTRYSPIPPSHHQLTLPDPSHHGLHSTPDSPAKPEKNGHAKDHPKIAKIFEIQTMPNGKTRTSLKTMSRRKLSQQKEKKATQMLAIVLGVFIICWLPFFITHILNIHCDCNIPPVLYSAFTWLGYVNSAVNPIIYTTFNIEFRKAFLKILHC

Turning to `O=C1CCC(N2Cc3c(OCc4ccc(CN5CCN(c6ccc(F)cc6F)CC5)cc4)cccc3C2=O)C(=O)N1` (racemic) [Compound A, 3-(4-((4-((4-(2,4-difluorophenyl)piperazin-1-yl)methyl)benzyl)oxy)-1-oxoisoindolin-2-yl)piperidine-2,6-dione, reference compound], in data set [1], the “Adrenergic α1 % Inh. (@10 μM)” value was 102%.

On to `N#Cc1ccc(N2CCN(Cc3ccc(COc4cccc5c4CN([C@H]4CCC(=O)NC4=O)C5=O)cc3)CC2)c(F)c1` [Compound 1, (S)-4-(4-(4-(((2-(2,6-dioxopiperidin-3-yl)-1-oxoisoindolin-4-yl)oxy)methyl)benzyl)piperazin-1-yl)-3-fluorobenzonitrile], for which the inhibition at 10 µM in data set [2] is 55%. Moreover, the racemization on heating result in data set [3] (DSC heating, chiral HPLC, gradual between 160-218° C.) is “almost complete by 218 °C”. Moreover, in data set [3] (heated to 160° C., 97.1% initial), the “chiral purity upon heating” value is listed as 96.1 area %. The “Adrenergic α1 % Inh. (@10 μM)” value in data set [1] was 67% and 62%.

In the case of `N#Cc1ccc(N2CCN(Cc3ccc(COc4cccc5c4CN([C@H]4CCC(=O)NC4=O)C5=O)cc3)CC2)c(F)c1` [Form B of a free base of Compound 1], in data set [4], the “competitive slurry with Form C” value is given as “rapidly converted to Form C”. Also, the hygroscopicity entry in data set [5] (DVS, class by mass gain at 85% r.h.) is “slightly hygroscopic (slightly hygroscopic (mass increase of <2% but ≥0.2%))”. Moreover, the DVS mass increase entry in data set [5] (relative humidity from about 5% to about 95%) was “about 3.1%”. In data set [6], the “PXRD result after mechanical treatment” value is listed as “no change in polymorphic form”. Further, the “Chiral purity after storage” value was 96.54 area % in data set [7] (2 week at 60° C./75% RH) and “remained unchanged” in data set [7] (2 week at 60° C.). Further, the “area % chemical purity after storage” value in data set [7] (2 week at 60° C./75% RH) was 97.92%; in data set [7] (2 week at 60° C.) it was 97.71%. In data set [7] (stored at 60° C., initially white to light brown), the colour after storage entry is given as “Color change was observed”. Moreover, the Solubility – broadly, the concentration that dissolves in the medium under given conditions – in data set [8] (FeSSiF) was determined as 77 µg/mL (≈ 136 µM); in data set [8] (SGF with pepsin), 406 µg/mL (≈ 715 µM); in data set [8] (pH 1 buffer HC1/NaC1), 85 µg/mL (≈ 150 µM); in data set [8] (pH 3 buffer (phosphate)), 125 µg/mL (≈ 220 µM); in data set [8] (pH 4 buffer (acetate)), 115 µg/mL (≈ 203 µM); in data set [8] (pH 5 buffer (acetate)), 7 µg/mL (≈ 12.3 µM). For the same molecule, the “Final pH” value is 6.43 in data set [8] (solubility sample in FaSSIF); 5.03 in data set [8] (solubility sample in FeSSiF); 1.29 in data set [8] (solubility sample in SGF with pepsin); 6.46 in data set [8] (solubility sample in Water); 1.09 in data set [8] (solubility sample in pH 1 buffer HC1/NaC1); 4.05 in data set [8] (solubility sample in pH 3 buffer (phosphate)). Besides, the “Final pH” value came out at 4.11 in data set [8] (solubility sample in pH 4 buffer (acetate)) and 5.05 in data set [8] (solubility sample in pH 5 buffer (acetate)).
